Results on three compounds are retold here after ChEMBL document CHEMBL1649066, “An imidazopiperidine series of CCR5 antagonists for the treatment of HIV: the discovery of N-{(1S)-1-(3-fluorophenyl)-3-[(3-endo)-3-(5-isobutyryl-2-methyl-4,5,6,7-tetrahydro-1H-imidazo[4,5-c]pyridin-1-yl)-8-azabicyclo[3.2.1]oct-8-yl]propyl}acetamide (PF-232798)” (J Med Chem, 2011).

The nature of series [1]: Oral bioavailability in rat at 2 mg/kg. In kind it is ADME, organism-based. As to conditions: in vivo.
A short description of series [2]: Tmax in rat at 2 mg/kg, po. In kind it is ADME, organism-based. Further details: dose 2 mg/kg, route oral. The conditions noted are these: in vivo.
A short description of series [3]: Intrinsic clearance in dog liver microsomes assessed per mg of protein. It counts as ADME, Canis lupus familiaris, Microsome. On the technique in general: Microsomes from liver hold many membrane-bound enzymes, among them those of drug oxidation.
A short description of series [4]: Clearance in dog at 0.5 mg/kg, iv and 0.5 mg/kg, po. The conditions noted are these: in vivo. In kind it is ADME, organism-based, Canis lupus familiaris.
The nature of series [5]: Volume of distribution in dog at 0.5 mg/kg, iv and 0.5 mg/kg, po. In kind it is ADME, organism-based, Canis lupus familiaris. As to conditions: in vivo.
Series [6] is described as follows: Intrinsic clearance in human liver microsomes assessed per mg of protein. It counts as ADME, Microsome.
Series [7] in a line: Oral bioavailability in dog at 0.5 mg/kg. As to conditions: in vivo. In kind it is ADME, organism-based, Canis lupus familiaris.
Series [8] deals with Human immunodeficiency virus. Description: Antiviral activity against HIV Ba-L infected in PBMC. As to conditions: Human immunodeficiency virus 1, Ba-L. In kind it is functional.
Series [9] can be described thus: Clearance in rat at 1 mg/kg, iv and 2 mg/kg, po. In kind it is ADME, organism-based. The conditions noted are these: in vivo.
Series [10] deals with Human immunodeficiency virus 1. Description: Antiviral activity against maraviroc-resistant HIV1 isolate CC185 at IC90 concentration. In kind it is functional, organism-based.
The nature of series [11]: Tmax in dog at 0.5 mg/kg, po. In kind it is ADME, organism-based, Canis lupus familiaris. Further details: dose 0.5 mg/kg, route oral. The conditions noted are these: in vivo.
For series [12], the system named is Human immunodeficiency virus 1. Description: Antiviral activity against maraviroc-resistant HIV1 isolate CC185 at 10 times IC90 concentration. It counts as functional, organism-based.
The nature of series [13]: Plasma protein binding in dog at 0.5 mg/kg, iv and 0.5 mg/kg, po. The conditions noted are these: read-out: PPB (converted). In kind it is ADME, organism-based, Canis lupus familiaris.
Series [14] is described as follows: Plasma protein binding in rat at 1 mg/kg, iv and 2 mg/kg, po. As to conditions: read-out: PPB (converted). In kind it is ADME, organism-based.
Series [15] is described as follows: Intrinsic clearance in rat liver microsomes assessed per mg of protein. It counts as ADME, Microsome.
Series [16] can be described thus: Half life in rat at 1 mg/kg, iv and 2 mg/kg, po. As to conditions: in vivo. It counts as ADME, organism-based.
The test system of series [17] is Rattus norvegicus. Description: Unbound clearance in rat at 1 mg/kg, iv and 2 mg/kg, po. In kind it is ADME, organism-based. As to conditions: in vivo.
Series [18] in a line: Half life in dog at 0.5 mg/kg, iv and 0.5 mg/kg, po. It counts as ADME, organism-based, Canis lupus familiaris. As to conditions: in vivo.
The test system of series [19] is Human immunodeficiency virus 1. Description: Antiviral activity against maraviroc-resistant HIV1 isolate CC185 at 100 times IC90 concentration. It counts as functional, organism-based.
For series [20], the system named is Canis familiaris. Description: Unbound clearance in dog at 0.5 mg/kg, iv and 0.5 mg/kg, po. In kind it is ADME, organism-based, Canis lupus familiaris. The conditions noted are these: in vivo.
Series [21] is described as follows: Apparent permeability from apical to basolateral side of human Caco2 cells. The conditions noted are these: Caco-2. On the technique in general: Caco-2 cells form a polarised layer with tight junctions and transporters.
Series [22] in a line: Clearance in rat at 2 mg/kg, iv and 2 mg/kg, po. It counts as ADME, organism-based. As to conditions: in vivo.
Series [23] is described as follows: Plasma protein binding in rat at 2 mg/kg, iv and 2 mg/kg, po. In kind it is ADME, organism-based. The conditions noted are these: read-out: PPB (converted).
The subject of series [24] is Rattus norvegicus. The series is described as follows: Unbound clearance in rat at 2 mg/kg, iv and 2 mg/kg, po. It counts as ADME, organism-based. As to conditions: in vivo.
Series [25] in a line: Apparent permeability from basolateral to apical side of human Caco2 cells. As to conditions: Caco-2.
Series [26] in a line: Octanol-buffer partition coefficient, log D of the compound.
Series [27] relates to Rattus norvegicus. Description: fCmax in rat at 2 mg/kg, po. In kind it is ADME, organism-based. Further details: dose 2 mg/kg, route oral. As to conditions: in vivo.
The target in series [28] is Voltage-gated inwardly rectifying potassium channel KCNH2 (Homo sapiens, UniProt Q12809).
Description: Displacement of [3H]-dofetilide from human ERG expressed in HEK293 cells
The subject of series [29] is Canis familiaris. The series is described as follows: fCmax in dog at 0.5 mg/kg, po. It counts as ADME, organism-based, Canis lupus familiaris. Also on record: dose 0.5 mg/kg, route oral. The conditions noted are these: in vivo.
Series [30] can be described thus: Half life in rat at 2 mg/kg, iv and 2 mg/kg, po. In kind it is ADME, organism-based. The conditions noted are these: in vivo.
Series [31] in a line: Volume of distribution in dog at 0.5 mg/kg, iv and 1 mg/kg, po. It counts as ADME, organism-based, Canis lupus familiaris. The conditions noted are these: in vivo.
Series [32] in a line: Absorption in dog at 0.5 mg/kg, iv and 1 mg/kg, po. In kind it is ADME, organism-based, Canis lupus familiaris. The conditions noted are these: in vivo, read-out: Activity.
The test system of series [33] is Canis familiaris. The series is described as follows: Unbound clearance in dog at 0.5 mg/kg, iv and 1 mg/kg, po. In kind it is ADME, organism-based, Canis lupus familiaris. The conditions noted are these: in vivo.
Series [34] is described as follows: Half life in rat at 1 mg/kg, iv and 10 mg/kg, po. It counts as ADME, organism-based. The conditions noted are these: in vivo.
A short description of series [35]: Oral bioavailability in rat at 10 mg/kg. It counts as ADME, organism-based. As to conditions: in vivo.
A short description of series [36]: Half life in dog at 0.5 mg/kg, iv and 1 mg/kg, po. As to conditions: in vivo. It counts as ADME, organism-based, Canis lupus familiaris.
Series [37] in a line: Absorption in rat at 1 mg/kg, iv and 10 mg/kg, po. In kind it is ADME, organism-based. As to conditions: in vivo, read-out: Activity.
Series [38] is described as follows: Plasma protein binding in dog at 0.5 mg/kg, iv and 1 mg/kg, po. As to conditions: read-out: PPB (converted). It counts as ADME, organism-based, Canis lupus familiaris.
Series [39] in a line: Oral bioavailability in dog at 1 mg/kg. As to conditions: in vivo. It counts as ADME, organism-based, Canis lupus familiaris.
A short description of series [40]: Plasma protein binding in rat at 1 mg/kg, iv and 10 mg/kg, po. In kind it is ADME, organism-based. The conditions noted are these: read-out: PPB (converted).
Series [41] is described as follows: Tmax in rat at 10 mg/kg, po. Further details: dose 10 mg/kg, route oral. In kind it is ADME, organism-based. The conditions noted are these: in vivo.
Series [42] concerns Rattus norvegicus. Description: Unbound clearance in rat at 1 mg/kg, iv and 10 mg/kg, po. As to conditions: in vivo. It counts as ADME, organism-based.
Series [43] is described as follows: Clearance in rat at 1 mg/kg, iv and 10 mg/kg, po. It counts as ADME, organism-based. As to conditions: in vivo.
Series [44] has as its system Rattus norvegicus. Description: fCmax in rat at 10 mg/kg, po. It counts as ADME, organism-based. Also on record: dose 10 mg/kg, route oral. As to conditions: in vivo.

As usually defined, the bioavailability is dose-corrected exposure relative to a reference, in per cent. Low values mean little systemic uptake, high ones much systemic uptake. Broadly, the Tmax is the time from dosing to the highest level. By microsomal CLint is commonly meant a measure of how fast metabolising enzymes remove a compound, apart from limits set by blood flow. For orientation: IC90 means the concentration at which the effect reaches the 90% level. Low values mean an effect from little substance, high ones a need for much substance. As a reminder, the half-life is the time needed for the level to fall by half in the phase considered. Higher therefore signals slow decline. A word on the Papp A→B: it is how fast a substance crosses the layer from the apical side. As usually defined, the Papp B→A is how fast a substance crosses the layer from the basolateral side. The term logD denotes lipophilicity at a set pH, counting ionised and neutral species. What is called IC50 is the point on the concentration scale where inhibition reaches its midpoint. Lower therefore signals higher potency.

Structures are written as SMILES. Active and inactive are the calls of the source. A value given as a limit tells only on which side of the number the result lay.

Sequence of Voltage-gated inwardly rectifying potassium channel KCNH2 (Q12809 whole entry): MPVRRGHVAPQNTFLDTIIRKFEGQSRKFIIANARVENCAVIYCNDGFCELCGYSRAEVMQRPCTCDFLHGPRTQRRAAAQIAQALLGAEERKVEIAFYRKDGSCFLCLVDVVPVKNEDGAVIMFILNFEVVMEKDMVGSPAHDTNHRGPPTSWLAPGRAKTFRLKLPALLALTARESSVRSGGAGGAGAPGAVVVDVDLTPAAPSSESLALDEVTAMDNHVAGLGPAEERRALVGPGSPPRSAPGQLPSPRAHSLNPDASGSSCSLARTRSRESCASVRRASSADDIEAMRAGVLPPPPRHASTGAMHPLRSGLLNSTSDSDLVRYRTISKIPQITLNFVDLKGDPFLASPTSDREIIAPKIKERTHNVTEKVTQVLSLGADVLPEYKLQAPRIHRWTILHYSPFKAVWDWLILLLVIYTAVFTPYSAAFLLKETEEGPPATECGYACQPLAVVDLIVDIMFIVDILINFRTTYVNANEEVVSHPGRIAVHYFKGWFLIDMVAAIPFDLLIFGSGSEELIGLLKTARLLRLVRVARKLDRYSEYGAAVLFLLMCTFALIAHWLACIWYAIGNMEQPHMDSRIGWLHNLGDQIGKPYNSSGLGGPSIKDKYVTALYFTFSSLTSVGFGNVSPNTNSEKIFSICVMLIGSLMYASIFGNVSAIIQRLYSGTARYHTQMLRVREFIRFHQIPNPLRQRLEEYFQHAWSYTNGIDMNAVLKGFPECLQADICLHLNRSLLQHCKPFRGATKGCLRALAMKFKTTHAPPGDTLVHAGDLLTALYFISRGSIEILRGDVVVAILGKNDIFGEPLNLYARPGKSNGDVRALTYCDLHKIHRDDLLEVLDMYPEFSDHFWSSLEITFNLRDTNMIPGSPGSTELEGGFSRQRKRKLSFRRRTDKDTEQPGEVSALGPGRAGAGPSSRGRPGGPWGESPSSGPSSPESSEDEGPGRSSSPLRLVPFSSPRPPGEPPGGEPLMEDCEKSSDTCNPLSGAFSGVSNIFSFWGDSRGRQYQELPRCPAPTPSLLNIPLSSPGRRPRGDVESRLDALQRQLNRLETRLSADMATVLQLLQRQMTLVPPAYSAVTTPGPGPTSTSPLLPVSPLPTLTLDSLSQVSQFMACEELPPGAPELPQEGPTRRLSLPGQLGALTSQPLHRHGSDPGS

`COC(=O)N1CCc2nc(C)n([C@H]3C[C@H]4CC[C@@H](C3)N4CC[C@H](NC(C)=O)c3cccc(F)c3)c2C1`: the bioavailability in [1] was found to be 8%; in [7], 42%. The Tmax came out at 2 h in [2] and 0.25 h in series [11]. The microsomal CLint in series [3] was 32 µL/min/mg; in series [6] it was 19 µL/min/mg; in series [15], 15 µL/min/mg. Also, the figures for the clearance in [4] and in [9] were 36 mL/min/kg and 46 mL/min/kg, respectively. This compound gave a Vd in series [5] of 11.8 L/kg. In [8], this compound showed an IC90 of 1.6 nM. The outcome in [10], in series [12] and in [19] was Active. Besides, the fraction unbound in [13] was 0.38; in series [14] it was 0.29. Also, the half-life in series [16] is 1.7 h; in series [18], 3.8 h. Also, the CL in the series on Rattus norvegicus [17] stood at 518 mL/min/kg; with Canis familiaris [20], 93 mL/min/kg.

With `COC(=O)N1CCc2c(nc(C)n2[C@H]2C[C@H]3CC[C@@H](C2)N3CC[C@H](NC(C)=O)c2cccc(F)c2)C1`, the bioavailability in series [1] is 20%; in [7], 50%. The Tmax in [2] was found to be 2 h; in [11] it was 0.5 h. Also, the microsomal CLint was less than 9 µL/min/mg in series [3], less than 8 µL/min/mg in series [6] and less than 6 µL/min/mg in series [15]. The Papp A→B in series [21] turned out to be 3 ×10⁻⁶ cm/s. Moreover, the clearance in series [22] is 91 mL/min/kg; in series [4], 36 mL/min/kg. The fraction unbound in [23] is 0.32; in series [13], 0.27. The compound further yielded a Vd in series [5] of 9.9 L/kg. For the same compound, the CL in the series with Rattus norvegicus [24] worked out at 253 mL/min/kg; with Canis familiaris [20], 150 mL/min/kg. The basolateral-to-apical permeability (Papp B→A) in series [25] amounted to 11 ×10⁻⁶ cm/s. Moreover, the logD in series [26] was 1.9. In [8], the concentration for an effect of 90% (IC90) stood at 0.8 nM. Further, the Cmax_unbound in the series with Rattus norvegicus [27] amounted to 208 nM; in the series with Canis familiaris [29] it was 9 nM. Moreover, the half-maximal inhibitory concentration (IC50) in series [28] was determined as 2000 nM. Further, the result in [10], in series [12] and in series [19] was Active. Also, the figures for the half-life in series [18] and in series [30] were 3.3 h and 2.3 h, respectively.

In the case of `Cc1nnc(C(C)C)n1[C@@H]1C[C@H]2CC[C@@H](C1)N2CC[C@H](NC(=O)C1CCC(F)(F)CC1)c1ccccc1` [MARAVIROC], the figures for the microsomal CLint in [3], in [6] and in series [15] were less than 9 µL/min/mg, 49 µL/min/mg and less than 6 µL/min/mg, respectively. In series [21], the apical-to-basolateral permeability (Papp A→B) was less than 1 ×10⁻⁶ cm/s. For the same compound, in series [31], the Vd is 4.3 L/kg. Also, the Fa amounted to 70% in [32] and 20% in [37]. For the same compound, in series [25], the basolateral-to-apical permeability (Papp B→A) worked out at 12 ×10⁻⁶ cm/s. Besides, the CL in the series with Canis familiaris [33] was determined as 53 mL/min/kg; with Rattus norvegicus [42], 137 mL/min/kg. For the same compound, the half-life in series [34] and in series [36] was 2.3 h throughout. The bioavailability amounted to 6% in series [35] and 42% in [39]. Moreover, the Cmax_unbound with Canis familiaris [29] turned out to be 80 nM; with Rattus norvegicus [44], 73 nM. Further, the fraction unbound in series [38] is 0.4; in series [40], 0.54. Further, the time to peak (Tmax) in [11] turned out to be 1.5 h; in series [41], 2 h. Besides, the clearance in series [43] turned out to be 74 mL/min/kg.
